Experimental data as given in the NIST ThermoML archive (doi:10.1021/acs.jced.6b00888).
Numbers after ± are expanded uncertainties.

Details: 101.3 kPa, Liquid, Vibrating tube method

CN(C)CCO [2-(N,N-dimethylamino)ethanol]
Details	mass density [kg/m3]
293.15 K	888.2 ± 5.2
298.15 K	884 ± 5.2
303.15 K	879.8 ± 5.2
308.15 K	875.5 ± 5.2
313.15 K	871.2 ± 5.2
318.15 K	866.8 ± 5.2
323.15 K	862.4 ± 5.2
328.15 K	858 ± 5.2
333.15 K	853.5 ± 5.2
338.15 K	849 ± 5.2
343.15 K	844.4 ± 5.2
